ChEMBL document CHEMBL1124186, “Synthesis and evaluation of tylosin-related macrolides modified at the aldehyde function: a new series of orally effective antibiotics” (1988)
≈ marks a conversion by molar mass, not a printed value.

How the values were obtained:
[1] = tested on: Enterococcus faecium; assay: In vitro antimicrobial activity against Streptococcus faecium X66; format: functional, streptococcus fae-cium
[2] = tested on: Streptococcus pyogenes; assay: In vitro antimicrobial activity against Streptococcus pyogenes C203; format: functional
[3] = tested on: Streptococcus pyogenes; assay: In vivo effective dose against experimental infections in rodent caused by Streptococcus pyogenes C203 when administered sc; format: functional
[4] = tested on: Haemophilus influenzae; assay: In vitro antimicrobial activity against Haemophilus influenzae.; format: functional
[5] = tested on: Staphylococcus epidermidis; assay: In vitro antimicrobial activity against Staphylococcus epidermidis EPI1; format: functional
[6] = tested on: Staphylococcus aureus; assay: In vitro antimicrobial activity against Staphylococcus aureus X1; format: functional
[7] = tested on: Streptococcus pyogenes; assay: In vivo effective dose against experimental infections in rodent caused by Streptococcus pyogenes C203 when administered orally; format: functional; conditions: po
[8] = tested on: Streptococcus pneumoniae; assay: In vitro antimicrobial activity against Streptococcus pneumoniae; format: functional

Row | Compound | MIC [1] [µg/mL] | MIC [2] [µg/mL] | MIC [4] [µg/mL] | MIC [5] [µg/mL] | MIC [6] [µg/mL] | MIC [8] [µg/mL] | ED50 [3] [mg/kg] | ED50 [7] [mg/kg]
1 | CCOC(C[C@H]1C[C@@H](C)C(=O)/C=C/C(C)=C/[C@H](CO[C@@H]2O[C@H](C)[C@@H](O)[C@@H](OC)[C@H]2OC)[C@@H](CC)OC(=O)C[C@@H](O)[C@H](C)[C@H]1O[C@@H]1O[C@H](C)[C@@H](O)[C@H](N(C)C)[C@H]1O)OCC | 8 (≈ 9.46 µM) | 0.5 (≈ 0.591 µM) | 16 (≈ 18.9 µM) | 1 (≈ 1.18 µM) | 0.5 (≈ 0.591 µM) | 4 (≈ 4.73 µM) | 3.4 | 35
2 | CC[C@H]1OC(=O)C[C@@H](O)[C@H](C)[C@@H](O[C@@H]2O[C@H](C)[C@@H](O[C@H]3C[C@@](C)(O)[C@@H](O)[C@H](C)O3)[C@H](N(C)C)[C@H]2O)[C@@H](CCN=[N+]=[N-])C[C@@H](C)C(=O)/C=C/C(C)=C/[C@@H]1CO[C@@H]1O[C@H](C)[C@@H](O)[C@@H](OC)[C@H]1OC | 128 (≈ 136 µM) | 2 (≈ 2.12 µM) | > 128 | 1 (≈ 1.06 µM) | 2 (≈ 2.12 µM) | 32 (≈ 33.9 µM) | 6.3 | –
3 | CC[C@H]1OC(=O)C[C@@H](O)[C@H](C)[C@@H](O[C@@H]2O[C@H](C)[C@@H](O)[C@H](N(C)C)[C@H]2O)[C@@H](CCOC(C(F)(F)F)C(F)(F)F)C[C@@H](C)C(=O)/C=C/C(C)=C/[C@@H]1CO[C@@H]1O[C@H](C)[C@@H](O)[C@@H](OC)[C@H]1OC | 32 (≈ 34.6 µM) | 0.5 (≈ 0.541 µM) | 64 (≈ 69.3 µM) | 0.5 (≈ 0.541 µM) | 0.5 (≈ 0.541 µM) | 4 (≈ 4.33 µM) | > 10 | –
4 | CC[C@H]1OC(=O)C[C@@H](O)[C@H](C)[C@@H](O[C@@H]2O[C@H](C)[C@@H](O)[C@H](N(C)C)[C@H]2O)[C@@H](CCSc2nnnn2C)C[C@@H](C)C(=O)/C=C/C(C)=C/[C@@H]1CO[C@@H]1O[C@H](C)[C@@H](O)[C@@H](OC)[C@H]1OC | 16 (≈ 18.3 µM) | 0.25 (≈ 0.287 µM) | – | 0.25 (≈ 0.287 µM) | 0.5 (≈ 0.573 µM) | 2 (≈ 2.29 µM) | – | 50
5 | CC[C@H]1OC(=O)C[C@@H](O)[C@H](C)[C@@H](O[C@@H]2O[C@H](C)[C@@H](O[C@H]3C[C@@](C)(O)[C@@H](O)[C@H](C)O3)[C@H](N(C)C)[C@H]2O)[C@@H](CCSc2nnnn2C)C[C@@H](C)C(=O)/C=C/C(C)=C/[C@@H]1CO[C@@H]1O[C@H](C)[C@@H](O)[C@@H](OC)[C@H]1OC | 128 (≈ 126 µM) | 1 (≈ 0.984 µM) | > 128 | 1 (≈ 0.984 µM) | 0.5 (≈ 0.492 µM) | 32 (≈ 31.5 µM) | > 6.3 | –

More lines, main results first:

Row | MIC [1] [µg/mL] | MIC [2] [µg/mL] | MIC [4] [µg/mL] | MIC [5] [µg/mL] | MIC [6] [µg/mL] | MIC [8] [µg/mL] | Compound | ED50 [3] [mg/kg] | ED50 [7] [mg/kg]
6 | 4 (≈ 4.45 µM) | 0.25 (≈ 0.278 µM) | 8 (≈ 8.91 µM) | 0.25 (≈ 0.278 µM) | 0.25 (≈ 0.278 µM) | – | CC[C@H]1OC(=O)C[C@@H](O)[C@H](C)[C@@H](O[C@@H]2O[C@H](C)[C@@H](O)[C@H](N(C)C)[C@H]2O)[C@@H](CCOS(=O)c2ccccc2)C[C@@H](C)C(=O)/C=C/C(C)=C/[C@@H]1CO[C@@H]1O[C@H](C)[C@@H](O)[C@@H](OC)[C@H]1OC (stereo partly specified) | 5 | 45
7 | 4 (≈ 4.47 µM) | 1 (≈ 1.12 µM) | 16 (≈ 17.9 µM) | 0.5 (≈ 0.559 µM) | 0.5 (≈ 0.559 µM) | 1 (≈ 1.12 µM) | CC[C@H]1OC(=O)C[C@@H](O)[C@H](C)[C@@H](O[C@@H]2O[C@H](C)[C@@H](O)[C@H](N(C)C)[C@H]2O)[C@@H](CCOc2ccc([N+](=O)[O-])cc2)C[C@@H](C)C(=O)/C=C/C(C)=C/[C@@H]1CO[C@@H]1O[C@H](C)[C@@H](O)[C@@H](OC)[C@H]1OC | – | 5
8 | 8 (≈ 8.68 µM) | 0.5 (≈ 0.542 µM) | – | 0.5 (≈ 0.542 µM) | 0.5 (≈ 0.542 µM) | 1 (≈ 1.08 µM) | CCOC(=O)c1ccc(OCC[C@H]2C[C@@H](C)C(=O)/C=C/C(C)=C/[C@H](CO[C@@H]3O[C@H](C)[C@@H](O)[C@@H](OC)[C@H]3OC)[C@@H](CC)OC(=O)C[C@@H](O)[C@H](C)[C@H]2O[C@@H]2O[C@H](C)[C@@H](O)[C@H](N(C)C)[C@H]2O)cc1 | > 10 | –
9 | 16 (≈ 20.3 µM) | 0.5 (≈ 0.635 µM) | – | 0.5 (≈ 0.635 µM) | 0.5 (≈ 0.635 µM) | 4 (≈ 5.08 µM) | CC[C@H]1OC(=O)C[C@@H](O)[C@H](C)[C@@H](O[C@@H]2O[C@H](C)[C@@H](O)[C@H](N(C)C)[C@H]2O)[C@@H](CCOC)C[C@@H](C)C(=O)/C=C/C(C)=C/[C@@H]1CO[C@@H]1O[C@H](C)[C@@H](O)[C@@H](OC)[C@H]1OC | > 6.3 | –
